Data set [1] can be described thus: acute toxicity, intraperitoneal, mice (DL50). Particulars: mouse, in vivo, ip, suspension in carboxymethylcellulose, observed one week, read-out: DL50 (average lethal dose). The method, then:
The acute toxicity was determined on groups of 10 mice weighing between 18 and 22 g and the product was administered intraperitoneally as a suspension in carboxymethylcellulose.

In data set [2] the test system is plasmatic free fatty acids. Nature of the data set: Antilipolytic activity: determination of plasmatic free fatty acids in the blood. The data set is classed as in vivo, Male rats of the Sprague Dawley SPF strain. Particulars: oral; for ED50: Rattus norvegicus, 1 h, starved rats, one hour after administration, read-out: DA50 (dose which reduced by 50% the level of free fatty acids as compared to controls); for reduction of the amount of plasmatic free fatty acids in the blood (in words): rats. The method, then:
B. Antilipolytic Activity: Determination of Plasmatic Free Fatty Acids in the Blood
Male rats of the Sprague Dawley SPF strain weighing about 180 to 200 gm were starved for 24 hours and then were given the product orally. One hour after the oral administration, the animals were killed by carotidienne section and samples of the blood were obtained to determine the amount of free fatty acids. The extraction of the free fatty acids was made by the technique of Dole [J. Clin. Invest., Vol. 38 (1959), p. 1544-1554] as modified by Trout et al. [J. Lipid. Res., Vol. 1 (1960) p. 199-202]. The plasmatic extract freed of phospholipids was colorimetrically examined by the method of Anthonis [J. Lipid. Res., Vol. 6 (1965), p. 307-312]. Under these test conditions, the dose of the products which reduced by 50% the level of free fatty acids in the treated animals as compared to the controls (DA50) was determined.

Data set [3] deals with glycemia. Briefly: Hypoglycemiant activity: determination of glycemia. The data set is classed as in vivo, Male rats of the Sprague Dawley SPF strain. As to conditions: oral, starved rats, one hour. Here is the method: C. Hypoglycemiant Activity: Determination of Glycemia
Male rats of the Sprague Dawley SPF strain weighing between 180 and 200 gm were starved for 24 hours and were then given the test product orally. One hour after the administration, the animals were killed by carotidienne section and blood samples were taken to determine the glycemia. The seric extract was treated by the enzymatic (glucose-oxydase) method of Boehringer and the percent of reduction of glycemia as compared to the controls was determined for each dose of the product administered.

Structures can show the parent of a compound that is named as a salt. Some results are limits rather than exact numbers.

`Cc1ncc(CN(C)C)s1` [Example 3, maleate of N,N,2-trimethyl-5-thiazole-methane-amine]: the LD50 at 168 h in data set [1] is about 450 mg/kg. In data set [2], the ED50 is about 5 mg/kg and the “reduction of the amount of plasmatic free fatty acids in the blood (in words)” value is recorded as “clear reduction”.

Take `CCCc1ncc(CN)s1` [Example 5, hemisuccinate of 2-n-propyl-5-thiazole-methane-amine]: the LD50 at 168 h in data set [1] is about 650 mg/kg. In data set [2], the ED50 was about 8 mg/kg. Besides, the “reduction of the amount of plasmatic free fatty acids in the blood (in words)” value in data set [2] was “clear reduction”. Besides, the “Percentage of reduction of the glycemia” value in data set [3] (5 mg/kg) is -12%; in data set [3] (10 mg/kg), -14%; in data set [3] (20 mg/kg), -27%.

`CNCc1cnc(C)s1` [Example 2, acetate of N,2-dimethyl-5-thiazole-methane-amine]: the LD50 at 168 h in data set [1] is about 700 mg/kg. Besides, in data set [2], the ED50 was about 4 mg/kg and the “reduction of the amount of plasmatic free fatty acids in the blood (in words)” value is “clear reduction”.

Take `Cc1ncc(CN(CCO)CCO)s1` [Example 4, dinitrate of N,N-bis-(β-hydroxyethyl)-2-methyl-5-thiazole-methane-amine]: in data set [1], the LD50 at 168 h was about 900 mg/kg.

For `Cc1ncc(CN)s1` [Example 1, hemisuccinate of 2-methyl-5-thiazole-methane-amine], in data set [1], the LD50 at 168 h was over 1000 mg/kg. In addition, in data set [2], the ED50 is about 0.8 mg/kg and the “reduction of the amount of plasmatic free fatty acids in the blood (in words)” value was “clear reduction”.

Take `Cc1ncc(CN2CCN(C)CC2)s1` [Example 7, 2-methyl-5-(4-methyl-piperazin-1-yl-methyl)-thiazole]: the LD50 at 168 h in data set [1] was about 500 mg/kg.

For the origin of these results see patent US4108994A, “5-Thiazole-methane-amines, and their use as antilipolytics” (Roussel Uclaf, priority 1975, dated 1978).
